Assay [1] addresses T1, C-C chemokine receptor type 3 (Homo sapiens, UniProt P51677).
T1 sequence (P51677 whole entry): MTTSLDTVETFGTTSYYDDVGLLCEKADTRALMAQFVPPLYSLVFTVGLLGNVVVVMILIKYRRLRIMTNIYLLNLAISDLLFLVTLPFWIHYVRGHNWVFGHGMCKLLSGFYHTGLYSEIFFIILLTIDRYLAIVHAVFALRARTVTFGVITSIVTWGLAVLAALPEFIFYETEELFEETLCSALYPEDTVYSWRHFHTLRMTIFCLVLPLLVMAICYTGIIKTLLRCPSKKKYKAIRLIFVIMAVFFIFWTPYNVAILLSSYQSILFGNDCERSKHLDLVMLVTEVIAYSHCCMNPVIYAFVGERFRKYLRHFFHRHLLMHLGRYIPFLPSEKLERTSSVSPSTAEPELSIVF
In words: Displacement of [125I] eotaxin from human CCR3 receptor in CHO cells. Format: cell-based. For orientation: Displacement assays read how much labelled ligand stays bound in the presence of the test substance.

Assay [2] deals with T2, C-C chemokine receptor type 3 (Homo sapiens) (UniProt P51677).
T2 sequence (whole entry): T1 sequence (P51677 whole entry)
In words: Antagonist activity at human CCR3 receptor assessed as inhibition of chemotaxis in eosinophil at 0.3 nM. Details: scale not given: the % may be the effect or the level left. Type of assay: functional.

The target in assay [3] is T2, C-C chemokine receptor type 3 (Homo sapiens). In words: Antagonist activity at human CCR3 receptor assessed as inhibition of chemotaxis in eosinophil at 3 nM. Type of assay: functional. Details: scale not given: the % may be the effect or the level left.
For assay [4] the target is unchanged. The assay is described as follows: Antagonist activity at human CCR3 receptor assessed as inhibition of chemotaxis in eosinophil at 30 nM. Type of assay: functional. Details: scale not given: the % may be the effect or the level left.
For assay [5], the target named is C-C chemokine receptor type 3 (Homo sapiens, UniProt P51677). The assay is described as follows: Displacement of [125I] eotaxin from human CCR3/CCR2 chimeric receptor in CHO cells. Type of assay: cell-based.
Assay [6] addresses T2, C-C chemokine receptor type 3 (Homo sapiens). The assay is described as follows: Antagonist activity at human CCR3 receptor assessed as inhibition of chemotaxis in eosinophil at 0.03 nM. Format: functional. Details: scale not given: the % may be the effect or the level left.

From ChEMBL document CHEMBL1140827, “From rigid cyclic templates to conformationally stabilized acyclic scaffolds. Part II: Acyclic replacements for the (3S)-3-benzylpiperidine in a series of potent CCR3 antagonists” (Bioorg Med Chem Lett, 2008) come the findings set out here.

On to `CCN(CCCc1ccc(F)cc1)C[C@H](O)[C@@H](C)NC(=O)Nc1cccc(-c2nnnn2C)c1`, for which the half-inhibitory concentration (IC50) (commonly the midpoint of a concentration-inhibition curve) in assay [1] came out at 0.2 nM. Also, the Activity in assay [2] worked out at 34%.

As to `CCc1cc(NC(=O)N[C@H](C)[C@@H](O)CN(CC)CCCc2ccc(F)cc2)cc(-c2nnnn2C)c1` (stereo in doubt; 5b), the IC50 in assay [1] came out at 0.4 nM. On the same count and under the same terms, the result for `CCc1cc(NC(=O)N[C@H](C)[C@@H](O)CN(CC)[C@@H](C)[C@@H](O)Cc2ccc(F)cc2)cc(-c2nnnn2C)c1` reads 1.2 nM. In assay [1], `C[C@H]([C@H](O)c1ccccc1)N(C)C[C@H](O)[C@@H](C)NC(=O)Nc1cccc(-c2nnnn2C)c1` returned an IC50 of 577 nM.

Regarding `CCc1cc(NC(=O)N[C@H](C)[C@@H](O)CN(CCCc2ccc(F)cc2)C2CC2)cc(-c2nnnn2C)c1`, the IC50 in assay [1] worked out at 0.6 nM. Regarding `C[C@@H](NC(=O)Nc1cccc(-c2nnnn2C)c1)[C@@H](O)CN(CCCc1ccc(F)cc1)CC1CC1`, in assay [1], the IC50 amounted to 0.4 nM. Further, in assay [3], the Activity was 44%. `C[C@@H](NC(=O)Nc1cccc(-c2nnnn2C)c1)[C@@H](O)CN(CCCc1ccc(F)cc1)CC(F)(F)F` had an IC50 in assay [1] of 59 nM. On to `CCc1cc(NC(=O)N[C@H](C)[C@@H](O)CN(CCCc2ccc(F)cc2)C2CCCCC2)cc(-c2nnnn2C)c1`, for which the IC50 in assay [1] amounted to 3.2 nM. Moreover, the Activity in assay [4] is 58%; in assay [3], 0%. Take `Cn1nnnc1-c1cccc(NC(=O)N[C@@H]2CCCC[C@H]2CN(CCCc2ccc(F)cc2)CC(F)(F)F)c1`: in assay [1], the IC50 was found to be 60 nM. Still for that read-out and setting: the same measure for `CCc1cc(NC(=O)N[C@H](C)[C@@H](O)CN(C)[C@@H](C)[C@@H](O)c2ccccc2)cc(-c2nnnn2C)c1`: 0.5 nM. For `CCc1cc(NC(=O)N[C@H](C)[C@@H](O)CN(CC)CCCc2ccc(F)cc2)cc(-c2nnnn2C)c1` (stereo in doubt; 5Et), the IC50 in assay [1] (cho) was 0.4 nM. As to `CCc1cc(NC(=O)N[C@H](C)[C@@H](O)CN(CCCc2ccc(F)cc2)CC23CC4CC(CC(C4)C2)C3)cc(-c2nnnn2C)c1`, the IC50 in assay [1] was 211 nM. In assay [1], `CCCN(CCCc1ccc(F)cc1)C[C@H](O)[C@@H](C)NC(=O)Nc1cccc(-c2nnnn2C)c1` yielded an IC50 of 0.2 nM. Also, in assay [3], the Activity was 43%. In the case of `C[C@H]([C@@H](O)c1ccccc1)N(C)C[C@H](O)[C@@H](C)NC(=O)Nc1cccc(-c2nnnn2C)c1`, the IC50 in assay [1] was 238 nM. As to `C[C@@H](NC(=O)Nc1cccc(-c2nnnn2C)c1)[C@@H](O)CN1CCC[C@@H](Cc2ccc(F)cc2)C1`, the IC50 stood at 0.3 nM in assay [1] and 0.4 nM in assay [5]. As to `CCc1cc(NC(=O)N[C@H](C)[C@@H](O)CN(CC)[C@@H](C)[C@H](O)Cc2ccc(F)cc2)cc(-c2nnnn2C)c1`, in assay [1], the IC50 was found to be 3.4 nM.

In assay [1], `C[C@@H](NC(=O)Nc1cccc(-c2nnnn2C)c1)[C@@H](O)CN(C)[C@@H](C)[C@H](O)c1ccccc1` yielded an IC50 of 5.7 nM.

With `C[C@@H](NC(=O)Nc1cccc(-c2nnnn2C)c1)[C@@H](O)CN(CCCc1ccc(F)cc1)CC12CC3CC(CC(C3)C1)C2`, the IC50 in assay [1] came to 421 nM. On the same count and under the same terms, the result for `CCN(C[C@H](O)[C@@H](C)NC(=O)Nc1cccc(-c2nnnn2C)c1)[C@@H](C)[C@H](O)Cc1ccc(F)cc1` reads 88 nM; that for `CCc1cc(NC(=O)N[C@H](C)[C@@H](O)CN(CCCc2ccc(F)cc2)CC2CC2)cc(-c2nnnn2C)c1`, 0.6 nM; that for `C[C@@H](NC(=O)Nc1cccc(-c2nnnn2C)c1)[C@@H](O)CN(CCCc1ccc(F)cc1)C1CCCCC1`, 2.5 nM. With `CCc1cc(NC(=O)N[C@H](C)[C@@H](O)CN(CCCc2ccc(F)cc2)C(C)=O)cc(-c2nnnn2C)c1`, the IC50 in assay [1] stood at 6 nM. For the molecule `C[C@@H](NC(=O)Nc1cccc(-c2nnnn2C)c1)[C@@H](O)CN(C)CCCc1ccc(F)cc1`, in assay [1], the IC50 was 0.4 nM. Further, the Activity in assay [4] was determined as 0%. `CN(CCCc1ccc(F)cc1)C[C@@H]1CCCC[C@H]1NC(=O)Nc1cccc(-c2nnnn2C)c1`: in assay [1], the IC50 is 0.6 nM. Still for that read-out and setting: the result for `CCc1cc(NC(=O)N[C@H](C)[C@@H](O)CN(CC)[C@@H](C)CCc2ccc(F)cc2)cc(-c2nnnn2C)c1` reads 0.2 nM.

In assay [1], `CCc1cc(NC(=O)N[C@H](C)[C@@H](O)CN(CCCc2ccc(F)cc2)CC(F)(F)F)cc(-c2nnnn2C)c1` registered an IC50 of 9 nM. The same measure, in the same setting: the same measure for `CCN(C[C@H](O)[C@@H](C)NC(=O)Nc1cccc(-c2nnnn2C)c1)[C@@H](C)[C@@H](O)Cc1ccc(F)cc1`: 19 nM. Still for that read-out and setting: the same measure for `CCc1cc(NC(=O)N[C@H](C)[C@@H](O)CN(CCCc2ccc(F)cc2)S(C)(=O)=O)cc(-c2nnnn2C)c1`: 21.6 nM. In the case of `CCc1cc(NC(=O)N[C@H](C)[C@@H](O)CN(CCCc2ccc(F)cc2)Cc2ccccc2)cc(-c2nnnn2C)c1`, the Activity in assay [6] amounted to 9%; in assay [2], 61%. In assay [1], this molecule registered an IC50 of 2.5 nM. Molecule `Cn1nnnc1-c1cccc(NC(=O)N[C@@H]2CCCC[C@H]2CNCCCc2ccc(F)cc2)c1` displayed an IC50 in assay [1] of 3.7 nM. The molecule `CCc1cc(NC(=O)N[C@H](C)[C@@H](O)CNCCCc2ccc(F)cc2)cc(-c2nnnn2C)c1` had an IC50 in assay [1] of 0.3 nM. Besides, the Activity in assay [4] was 55%; in assay [3], 42%.

Consider `C[C@@H](NC(=O)Nc1cccc(-c2nnnn2C)c1)[C@@H](O)CN(CCCc1ccc(F)cc1)C1CC1`, for which, in assay [1], the IC50 turned out to be 0.4 nM. The same measure, in the same setting: the same measure for `CCc1cc(NC(=O)N[C@H](C)[C@@H](O)CN2CCC[C@@H](Cc3ccc(F)cc3)C2)cc(-c2nnnn2C)c1`: 1.8 nM. Still for that read-out and setting: the result for `CCc1cc(NC(=O)N[C@H](C)[C@@H](O)CN(C)CCCc2ccc(F)cc2)cc(-c2nnnn2C)c1` reads 0.3 nM. On the same count and under the same terms, the result for `CCN(C[C@H](O)[C@@H](C)NC(=O)Nc1cccc(-c2nnnn2C)c1)[C@@H](C)CCc1ccc(F)cc1` reads 2.5 nM.

Molecule `C[C@@H](NC(=O)Nc1cccc(-c2nnnn2C)c1)[C@@H](O)CN(C)[C@@H](C)[C@@H](O)c1ccccc1` returned an IC50 in assay [1] of 0.4 nM. Also, the Activity in assay [4] came to 67%. Take `CCCN(CCCc1ccc(F)cc1)C[C@H](O)[C@@H](C)NC(=O)Nc1cc(CC)cc(-c2nnnn2C)c1`: the values for the Activity in assay [6] and in assay [2] were 42% and 62%, respectively. The same molecule came in with an IC50 in assay [1] of 0.5 nM.
